The values that follow come from PubChem BioAssay AID652143 (Broad Institute, 2013).

What all share (assay): apoptosis induction across cell line panel, profiling panel, mechanism study for HRAS target identification project, Caspase-Glo 3/7 luminescence, multiple timepoints (AID 652143)
Experiment [1] concerns SNB-19. To be noted: caspase 3/7 luminescence, 1/6/24 h.
Experiment [2] relates to LOX-IMVI. To be noted: caspase 3/7 luminescence, 1/6/24 h, caspase 3/7 AC40, timepoint 3.
Experiment [3] concerns U-251. To be noted: caspase 3/7 luminescence, 1/6/24 h.
Experiment [4] has as its system HT-29. Particulars: caspase 3/7 luminescence, 1/6/24 h, caspase 3/7 AC40, timepoint 2.
Experiment [5] deals with SR. Particulars: caspase 3/7 luminescence, 1/6/24 h.

Each structure is given as a SMILES string. Results filed as inconclusive are left out. Calls of active or inactive are those of the source. The rule behind the calls is not given here.

With `CCC(=O)N(c1ccc(OC)c(Cl)c1)C(C(=O)NCCc1ccccc1)c1cccs1` (stereo not given), the outcome in experiment [1] and in experiment [3] was inactive. Further, the AC40 in experiment [2] was greater than 35 µM.

`CO[C@H]1C[C@@H]2CC[C@@H](C)[C@@](O)(O2)C(=O)C(=O)N2CCCC[C@H]2C(=O)O[C@H]([C@H](C)C[C@@H]2CC[C@@H](O)[C@H](OC)C2)CC(=O)[C@H](C)/C=C(\C)[C@@H](O)[C@@H](OC)C(=O)[C@H](C)C[C@H](C)/C=C/C=C/C=C/1C`: the result in experiment [1] was inactive. The same compound gave an AC40 in experiment [1] (caspase 3/7 AC40, timepoint 2) of 35 µM.

On to `CC(C)(C)OC(=O)NCCOCCOCCOc1ccc(N(C(=O)CCl)C(C(=O)NCCc2ccccc2)c2cccs2)cc1Cl` (stereo not given), for which the AC40 in experiment [1] was > 35 µM (inactive).

For the compound `Cc1onc(C(=O)N2CCN(C(c3ccc(Cl)cc3)c3ccc(OCCOCCOCCNC(=O)OC(C)(C)C)cc3)CC2)c1[N+](=O)[O-]` (stereo not given), the result in experiment [1] was inactive.

In the case of `O=C(NCCOCCOCCOc1ccc(N(C(=O)CCl)C(C(=O)NCCc2ccccc2)c2cccs2)cc1Cl)c1ccc(COC2C#CCCCCC2)cc1` (stereo not given), in experiment [4], the AC40 was greater than 35 µM.

Turning to `COc1ccc(N(C(=O)CCl)C(C(=O)NCCc2ccccc2)c2cccs2)cc1Cl` (stereo not given), the AC40 in experiment [5] was 22200 nM; in experiment [5] (caspase 3/7 AC40, timepoint 2), 177 nM; in experiment [5] (caspase 3/7 AC40, timepoint 3), 551 nM; in experiment [3], 14700 nM; in experiment [3] (caspase 3/7 AC40, timepoint 2), 1450 nM; in experiment [3] (caspase 3/7 AC40, timepoint 3) it was 948 nM.

Regarding `Cc1onc(C(=O)N2CCN(C(c3ccc(Cl)cc3)c3ccc(Cl)cc3)CC2)c1[N+](=O)[O-]`, the result in experiment [1] was inactive.
